PMC7170299, “Design, synthesis, molecular modelling and biological evaluation of novel 3-(2-naphthyl)-1-phenyl-1H-pyrazole derivatives as potent antioxidants and 15-Lipoxygenase inhibitors” (Journal of Enzyme Inhibition and Medicinal Chemistry, 2020)

Legend:
[1] = NO scavenging assay (sodium nitroprusside / Griess reagent); settings: mean ± SEM of three experiments; 90 min, 546 nm
Protocol: The NO scavenging activity of all synthesized compounds was measured as previously described by Ho et al.[50] Briefly, 50 µL of different concentrations of the tested compounds (12.5, 25, 50,100, and 200 µg/mL) were pipetted into a 96-well plate. Then, 50 µL of 10-mM sodium nitroprussides dissolved in phosphate-buffered saline PBS (pH 7.4) were added to each well and the plate was incubated for 90 min at room temperature. Next, an equal volume of Griess reagent (1% of sulphanilamide and 0.1% of naphthyl ethylene diamine in 2.5% […]) was added to each well to measure the nitrite content. The absorbance of the formed pink-coloured chromophore was measured at λ 546 nm. DMSO and ascorbic acid were used as the negative and positive control, respectively. All tests were performed in triplicate. The percentage of NO scavenging activity was calculated according to the following equation: % of NO scavenging=[(Acontrol−Asample)/Acontrol]×100 where Acontrol is the absorbance of the control reaction (with all reagents except the test compound), and Asample is the absorbance of the test sample.

[2] = system: glutathione (GSH) in liver; test: In vivo reduced glutathione (GSH) level in liver homogenate; parameters: species or system male Wistar albino rats; settings: rat liver; 100 mg/kg orally for 3 days; mean ± SEM, n = 6
Protocol: (§1) The complete progress of the experiment was conducted using male Wistar albino rats (200–250 g), delivered by the Institutional Breeding House, Egypt, reared and maintained in the animal house of the institution. The animals had free access to food and water ad libitum and maintained in a controlled environment under standard conditions of temperature and humidity with an alternating 12 h light and dark cycle for about a week for acclimatization. The protocol of the study was approved by the Animal Ethics Committee of the Faculty of Pharmacy, Helwan University (ethical code number: 05A2019; date: October 2019). The study was conducted in accordance with the EC, directive 86/609/EEC for animal experiments.
(§2) Rats are weighed at the beginning and at the end of experiment. Fifty-four male albino rats (n=6) were divided into nine different groups. Group I served as a control group and treated with the same volume vehicle only. Group II treated with 100 mg/kg of Ascorbic acid as standard antioxidant drug. Groups (III–IX) orally administered 100 mg/kg of compounds 3a, 4e, 5b, 5c, 6a, 6c, 6e, respectively, for 3 days. The animals were sacrificed by cervical dislocation 24 h after the last dose. Sacrificing is carried out at the same time of the day, to avoid the circadian variation in the level of tissue GSH[53]. Each liver was excised, weighed, rinsed in ice-cold normal saline and frozen for not more than 72 h await analysis of endogenous antioxidant status (GSH levels and CAT activity) and lipid peroxide concentrations. For performing biochemical assays, a 10% liver homogenate in 10 mM phosphate buffer was prepared using tissue homogeniser (Glas-Col®, Cat no.099C K6424, TERRE HAUTE, USA).
Levels of glutathione (GSH) in liver homogenates were assayed by the deproteinization of tissue homogenate. Then […] supernatant was mixed with di-potassium hydrogen phosphate buffer (pH 8) and 0.4% 5,5′-dithiobis-2-nitrobenzoic acid (Ellman’s reagent). The yellow-coloured substance formed was measured at 412 nm. The results were expressed as GSH mg/g tissue.

[3] = system: Catalase (CAT) activity in liver; test: In vivo catalase (CAT) activity in liver homogenate; parameters: species or system male Wistar albino rats; settings: rat liver; 100 mg/kg orally for 3 days; mean ± SEM, n = 6
Protocol: as §1, §2
Catalase activity in 10% liver homogenates was determined spectrophotometrically according to Sinha AK[54]. The decrease in absorbance at 240 nm due to H2O2 decomposition was measured and the results were expressed in U/mg tissue.

[4] = DPPH radical scavenging assay; settings: mean ± SEM of three experiments; 30 min, 517 nm
Protocol: The DPPH scavenging activity of all synthesized compounds was measured as previously described by Nahar et al.[48] with some modifications. Briefly, 100 µL of different concentrations of the tested compounds (12.5, 25, 50, 100, and 200 µg/mL) were pipetted into a 96-well plate. Then, 100 µL of 100-µM DPPH methanolic solution were added to each well and the plate was incubated protected from light at room temperature for 30 min. The absorbance of the solution was measured at λ517 nm.[49] Ascorbic acid was used as the positive control while DMSO was the negative control. The percentage of DPPH scavenging activity was calculated according to the following equation: % of DPPH scavenging=[(Acontrol–Asample)/Acontrol] ×100, where Acontrol is the absorbance of the control reaction (with all reagents except the test compound), and Asample is the absorbance of the test sample. […] All tests were performed in triplicates.

[5] = Superoxide scavenging assay (pyrogallol autoxidation); settings: mean ± SEM of three experiments; pyrogallol autoxidation, 325 nm
Protocol: The improved pyrogallol autoxidation method was used to determine O2^−. RSA of all synthesized compounds as previously described. Briefly, 50 µL of test compounds (12.5, 25, 50,100, and 200 µg/mL) was added to 2900 µl of […] Tris HCl buffer (0.05 M, pH 7.4) containing 1-mM Na2EDTA. Next, 50 µL of 60-mM pyrogallol in1mM HCl had been thoroughly mixed with the mixture. The absorbance of the reaction mixture was measured at A325 nm every 30 s for 5 min. O2^− RSA was expressed by the oxidation degree of a test group in comparison to that of the control. The absorbance at 325 nm was measured against the Tris-HCl buffer every 30 s for 5 min. The percentage of scavenging effect was calculated using the following equation: O2^− radical scavenging %=[(ΔA325, control/T)−(ΔA325nm, sample/T)/ΔA325nm, control/T]×100 where ΔA325 nm, control is the increase in A325 nm of the reaction mixture without the sample and ΔA325 nm, sample is that for the mixture with the sample; T=5 min. The experiments were performed in triplicate.

[6] = system: lipid peroxidation (MDA) in liver; test: In vivo lipid peroxide level (TBARS/MDA) in liver homogenate; parameters: species or system male Wistar albino rats; settings: rat liver; 100 mg/kg orally for 3 days; mean ± SEM, n = 6
Protocol: as §1, §2
Lipid peroxidation level in the liver homogenates was determined as thiobarbituric acid reactive substances (TBARS) by measuring malondialdehyde ‘MDA’ level according to Mihara and Uchiyama[56]. Briefly, 0.5 mL supernatant of tissue homogenate was mixed with 0.6% thiobarbituric acid (TBA) and 1% orthophosphoric acid solution, and heated in a boiling water bath for 45 min. The pink-coloured chromogen formed by the reaction of TBA with MDA was extracted by n-butanol and measured at 535 nm. The results were expressed as nmol/g tissue.

[7] = parameters: method as in PMID 24752861; settings: at 10^−4 M concentration; cited from earlier work
Soybean 15-LOX enzyme = molecular target: T1, Soybean 15-LOX enzyme (Glycine max, UniProt P08170); test: In vitro lipoxygenase inhibition (Cayman lipoxygenase inhibitor screening assay kit); assay type: biochemical; settings: mean ± SEM of three experiments; substrate arachidonic acid
T1 construct: purchased Cayman Chemical 760700
T1 sequence (P08170 1-839): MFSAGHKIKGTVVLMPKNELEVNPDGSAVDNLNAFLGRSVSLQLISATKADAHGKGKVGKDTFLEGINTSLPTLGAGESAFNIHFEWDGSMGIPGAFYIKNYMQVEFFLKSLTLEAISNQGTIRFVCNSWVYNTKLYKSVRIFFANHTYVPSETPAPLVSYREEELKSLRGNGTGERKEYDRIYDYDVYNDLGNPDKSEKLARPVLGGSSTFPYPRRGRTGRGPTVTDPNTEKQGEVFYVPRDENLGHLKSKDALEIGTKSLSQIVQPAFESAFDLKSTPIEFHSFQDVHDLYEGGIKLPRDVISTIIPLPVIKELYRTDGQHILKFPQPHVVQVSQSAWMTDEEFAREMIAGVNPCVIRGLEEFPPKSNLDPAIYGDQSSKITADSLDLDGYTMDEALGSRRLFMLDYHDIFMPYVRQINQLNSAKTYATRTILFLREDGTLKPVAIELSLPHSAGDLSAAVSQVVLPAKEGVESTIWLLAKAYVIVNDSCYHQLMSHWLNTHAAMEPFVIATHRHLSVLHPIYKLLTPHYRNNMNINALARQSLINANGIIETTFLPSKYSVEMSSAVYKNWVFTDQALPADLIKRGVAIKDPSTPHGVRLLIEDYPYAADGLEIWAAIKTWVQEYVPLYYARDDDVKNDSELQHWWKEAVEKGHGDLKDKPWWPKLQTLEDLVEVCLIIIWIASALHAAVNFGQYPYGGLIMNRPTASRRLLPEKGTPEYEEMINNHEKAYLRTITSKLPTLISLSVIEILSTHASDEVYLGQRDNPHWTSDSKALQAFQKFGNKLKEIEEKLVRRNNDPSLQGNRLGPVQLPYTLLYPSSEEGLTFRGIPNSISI
Protocol: The assay was performed using Cayman’s lipoxygenase inhibitor screening assay kit (Catalog No. 760700, Cayman Chemical, USA) according to the manufacturer’s instructions. Briefly, 90 µL of 15-LOX was pipetted into a 96-well plate. Next, 10 µL of test compound at concentrations (2.5, 5.0 and 10 µM) dissolved in DMSO were added to each well. The reaction was initiated by adding 10 µL substrate (AA) and the plate was placed on a shaker for at least 5 minutes. Finally, 100 µL of chromogen (prepared according to manufacturer’s instructions) was added to each well to stop enzyme catalysis and develop the reaction. 100 µL of Assay buffer (0.1 M Tris-HCl, pH7.4) was used in blank wells. […] The absorbance of the solution was measured at λ 490–500 nm. The percentage inhibition was calculated according to the following equation: % inhibition =[(IA−Ainhibitor sample)/IA]×100 where (IA) is the 100% initial activity and (Ainhibitor sample) is the absorbance of the test sample. Dose–response curve was plotted between % inhibition and the drug concentration. The non-linear dose–response curve was used for calculating drug concentration showing 50% enzyme inhibition.

NO IC50 [1] [µg/mL]	DPPH IC50 [4] [µg/mL]	IC50 (Soybean 15-LOX enzyme) [nM]	melting point [°C]	Compound	GSH [2] [mg/g tissue]	CAT [3] [U/mg tissue]	Superoxide IC50 [5] [µg/mL]	TBARS [6] [nmol/g tissue]	DPPH scavenging activity [7] [%]
37.9 ± 1.31	13.67 ± 0.97			O=C1O[C@H]([C@@H](O)CO)C(O)=C1O [Ascorbic acid, reference compound]	8.25 ± 0.45	42.56 ± 3.76	124.99 ± 1.32	0.392 ± 0.07	
				Cc1cc(C(C)(C)C)c(O)c(C(C)(C)C)c1 [BHT7, butylated hydroxy toluene]					20
37.5 ± 1.36	97.17 ± 1.4	5530 ± 70	190 to 191	c1ccc(C2=NOC(c3cn(-c4ccccc4)nc3-c3ccc4ccccc4c3)C2)cc1 (stereo not shown) [Compound 5a, 5-(3-Naphthalen-2-yl-1-phenyl-1H-pyrazol-4-yl)-3-phenyl-4,5-dihydro-isoxazole]			192.37 ± 1.74		
96.56 ± 1.4	38.44 ± 1.28	3000 ± 60	187 to 189	Clc1ccc(C2=NOC(c3cn(-c4ccccc4)nc3-c3ccc4ccccc4c3)C2)cc1Cl (stereo not shown) [Compound 5e, 3-(3,4-Dichlorophenyl)-5-(3-naphthalen-2-yl-1-phenyl-1H-pyrazol-4-yl)-4,5-dihydro isoxazole]			168.77 ± 1.42		
198.08 ± 1.28	12.02 ± 0.63	1900 ± 60	193 to 194	COc1ccc(C2=NN(C(N)=S)C(c3cn(-c4ccccc4)nc3-c3ccc4ccccc4c3)C2)cc1 (stereo not shown) [Compound 6b]			>200		
148.08 ± 1.36	>200	1670 ± 30	186 to 187	NC(=S)N1N=C(c2ccc(Cl)cc2)CC1c1cn(-c2ccccc2)nc1-c1ccc2ccccc2c1 (stereo not shown) [Compound 6d]			>200		
				NS(=O)(=O)c1ccc(N2N=C(c3ccco3)CC2c2cnn(-c3ccccc3)c2)cc1 (stereo not shown) [XI]					19
